Experiments:
ABCC3 (MRP3) = ABCC3 (MRP3) (Homo sapiens, UniProt O15438); test: Uptake into inside-out Sf9 vesicles expressing ABCC3; format: in vitro ADME; details: same experimental conditions as ABCC4 vesicles
[1] = human, oral administration; cited from earlier work
[2] = Plasma pharmacokinetics in wildtype and Abcc4; details: for clearance / Cmax / Tmax: male, C57BL/6, mouse, plasma, 10 mg/kg; for clearance: CL
Blood cell partitioning = format: in vitro ADME, mouse
mOct1 = molecular target: T1, mOct1 (Mus musculus, UniProt O08966); test: Uptake in HEK293 cells expressing mOct1; format: in vitro ADME; details: HEK293, 1 μM
T1 sequence (O08966 1-556): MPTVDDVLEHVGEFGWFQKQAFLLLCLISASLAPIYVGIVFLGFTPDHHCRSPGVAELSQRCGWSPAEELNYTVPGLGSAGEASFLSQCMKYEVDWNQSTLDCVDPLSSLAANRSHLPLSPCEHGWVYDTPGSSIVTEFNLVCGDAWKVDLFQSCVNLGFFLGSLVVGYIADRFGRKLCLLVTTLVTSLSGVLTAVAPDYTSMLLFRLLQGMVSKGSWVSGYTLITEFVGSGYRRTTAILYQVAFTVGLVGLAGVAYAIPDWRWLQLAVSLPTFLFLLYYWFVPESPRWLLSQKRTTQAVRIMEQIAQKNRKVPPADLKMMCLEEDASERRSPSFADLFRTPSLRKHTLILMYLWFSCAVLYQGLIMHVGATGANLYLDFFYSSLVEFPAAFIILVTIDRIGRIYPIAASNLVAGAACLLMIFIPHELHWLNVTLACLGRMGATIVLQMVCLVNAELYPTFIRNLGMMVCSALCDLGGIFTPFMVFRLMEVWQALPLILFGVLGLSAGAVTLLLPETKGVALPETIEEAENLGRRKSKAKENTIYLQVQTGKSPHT

Abcc4 = molecular target: T2, Abcc4 (Mus musculus, UniProt E9Q236); test: Ex vivo mucosal-to-serosal transport in isolated stomach sacs; format: in vitro ADME; details: Abcc4(−/−) vs wildtype mice
T2 sequence (E9Q236 1-1325): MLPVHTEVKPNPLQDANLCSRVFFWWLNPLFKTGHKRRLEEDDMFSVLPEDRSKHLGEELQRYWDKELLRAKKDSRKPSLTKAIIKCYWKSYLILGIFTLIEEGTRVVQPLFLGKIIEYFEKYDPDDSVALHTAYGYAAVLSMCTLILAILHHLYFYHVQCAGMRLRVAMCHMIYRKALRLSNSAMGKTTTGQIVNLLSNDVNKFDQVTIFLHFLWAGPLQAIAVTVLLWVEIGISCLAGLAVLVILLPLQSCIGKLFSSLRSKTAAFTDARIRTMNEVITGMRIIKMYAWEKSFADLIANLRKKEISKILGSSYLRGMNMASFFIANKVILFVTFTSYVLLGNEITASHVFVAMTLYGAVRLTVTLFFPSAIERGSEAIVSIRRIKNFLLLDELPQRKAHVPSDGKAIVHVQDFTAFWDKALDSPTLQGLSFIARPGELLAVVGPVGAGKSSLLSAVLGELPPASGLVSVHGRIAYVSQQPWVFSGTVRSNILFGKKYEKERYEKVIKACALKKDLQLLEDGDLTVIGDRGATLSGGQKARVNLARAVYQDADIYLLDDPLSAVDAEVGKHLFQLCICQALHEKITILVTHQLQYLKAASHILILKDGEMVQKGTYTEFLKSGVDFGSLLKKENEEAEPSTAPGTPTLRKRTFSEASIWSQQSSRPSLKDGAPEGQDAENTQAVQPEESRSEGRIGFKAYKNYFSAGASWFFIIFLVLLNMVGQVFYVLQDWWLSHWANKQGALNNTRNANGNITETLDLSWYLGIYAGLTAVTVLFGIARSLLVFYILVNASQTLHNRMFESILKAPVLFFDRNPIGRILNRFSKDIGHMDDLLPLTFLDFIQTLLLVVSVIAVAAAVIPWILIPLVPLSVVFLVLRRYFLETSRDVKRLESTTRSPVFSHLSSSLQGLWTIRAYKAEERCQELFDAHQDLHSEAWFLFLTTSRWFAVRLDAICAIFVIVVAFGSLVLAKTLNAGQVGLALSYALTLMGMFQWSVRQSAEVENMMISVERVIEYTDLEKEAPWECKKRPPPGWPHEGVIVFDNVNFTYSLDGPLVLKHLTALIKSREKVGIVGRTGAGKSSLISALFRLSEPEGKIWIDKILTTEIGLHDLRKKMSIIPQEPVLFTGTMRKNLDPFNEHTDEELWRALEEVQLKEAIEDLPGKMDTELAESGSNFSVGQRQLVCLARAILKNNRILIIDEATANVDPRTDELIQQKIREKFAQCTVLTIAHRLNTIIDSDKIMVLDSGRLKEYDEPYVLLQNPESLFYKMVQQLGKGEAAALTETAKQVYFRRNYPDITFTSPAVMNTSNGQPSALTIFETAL

mOct2 = molecular target: T3, mOct2 (Mus musculus, UniProt O70577); test: Uptake in HEK293 cells expressing mOct2; format: in vitro ADME; details: HEK293, 1 μM
T3 sequence (O70577 1-553): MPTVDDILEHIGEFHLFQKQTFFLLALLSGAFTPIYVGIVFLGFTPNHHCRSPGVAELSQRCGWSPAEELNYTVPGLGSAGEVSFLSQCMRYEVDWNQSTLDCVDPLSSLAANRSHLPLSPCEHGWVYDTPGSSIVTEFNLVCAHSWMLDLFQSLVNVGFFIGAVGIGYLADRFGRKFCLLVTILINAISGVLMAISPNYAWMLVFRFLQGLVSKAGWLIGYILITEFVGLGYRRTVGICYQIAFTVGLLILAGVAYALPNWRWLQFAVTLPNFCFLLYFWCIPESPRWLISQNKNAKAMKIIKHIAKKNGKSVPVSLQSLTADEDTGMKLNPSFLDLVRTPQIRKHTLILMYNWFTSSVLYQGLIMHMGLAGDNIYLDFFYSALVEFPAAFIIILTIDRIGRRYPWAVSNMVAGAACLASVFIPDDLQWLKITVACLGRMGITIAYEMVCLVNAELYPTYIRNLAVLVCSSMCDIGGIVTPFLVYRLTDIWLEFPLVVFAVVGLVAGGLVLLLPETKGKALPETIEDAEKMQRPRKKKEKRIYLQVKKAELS

[3] = Binding to serum proteins; format: in vitro ADME; details: male, C57BL/6, mouse
[4] = iv, i.v. 10 mg/kg, Abcc4(−/−) mice
[5] = iv, i.v. 10 mg/kg, wildtype mice
[6] = po, oral 10 mg/kg, Abcc4(−/−) mice
[7] = po, oral 10 mg/kg, wildtype mice

Chain of ABCC3 (MRP3) (O15438 whole entry): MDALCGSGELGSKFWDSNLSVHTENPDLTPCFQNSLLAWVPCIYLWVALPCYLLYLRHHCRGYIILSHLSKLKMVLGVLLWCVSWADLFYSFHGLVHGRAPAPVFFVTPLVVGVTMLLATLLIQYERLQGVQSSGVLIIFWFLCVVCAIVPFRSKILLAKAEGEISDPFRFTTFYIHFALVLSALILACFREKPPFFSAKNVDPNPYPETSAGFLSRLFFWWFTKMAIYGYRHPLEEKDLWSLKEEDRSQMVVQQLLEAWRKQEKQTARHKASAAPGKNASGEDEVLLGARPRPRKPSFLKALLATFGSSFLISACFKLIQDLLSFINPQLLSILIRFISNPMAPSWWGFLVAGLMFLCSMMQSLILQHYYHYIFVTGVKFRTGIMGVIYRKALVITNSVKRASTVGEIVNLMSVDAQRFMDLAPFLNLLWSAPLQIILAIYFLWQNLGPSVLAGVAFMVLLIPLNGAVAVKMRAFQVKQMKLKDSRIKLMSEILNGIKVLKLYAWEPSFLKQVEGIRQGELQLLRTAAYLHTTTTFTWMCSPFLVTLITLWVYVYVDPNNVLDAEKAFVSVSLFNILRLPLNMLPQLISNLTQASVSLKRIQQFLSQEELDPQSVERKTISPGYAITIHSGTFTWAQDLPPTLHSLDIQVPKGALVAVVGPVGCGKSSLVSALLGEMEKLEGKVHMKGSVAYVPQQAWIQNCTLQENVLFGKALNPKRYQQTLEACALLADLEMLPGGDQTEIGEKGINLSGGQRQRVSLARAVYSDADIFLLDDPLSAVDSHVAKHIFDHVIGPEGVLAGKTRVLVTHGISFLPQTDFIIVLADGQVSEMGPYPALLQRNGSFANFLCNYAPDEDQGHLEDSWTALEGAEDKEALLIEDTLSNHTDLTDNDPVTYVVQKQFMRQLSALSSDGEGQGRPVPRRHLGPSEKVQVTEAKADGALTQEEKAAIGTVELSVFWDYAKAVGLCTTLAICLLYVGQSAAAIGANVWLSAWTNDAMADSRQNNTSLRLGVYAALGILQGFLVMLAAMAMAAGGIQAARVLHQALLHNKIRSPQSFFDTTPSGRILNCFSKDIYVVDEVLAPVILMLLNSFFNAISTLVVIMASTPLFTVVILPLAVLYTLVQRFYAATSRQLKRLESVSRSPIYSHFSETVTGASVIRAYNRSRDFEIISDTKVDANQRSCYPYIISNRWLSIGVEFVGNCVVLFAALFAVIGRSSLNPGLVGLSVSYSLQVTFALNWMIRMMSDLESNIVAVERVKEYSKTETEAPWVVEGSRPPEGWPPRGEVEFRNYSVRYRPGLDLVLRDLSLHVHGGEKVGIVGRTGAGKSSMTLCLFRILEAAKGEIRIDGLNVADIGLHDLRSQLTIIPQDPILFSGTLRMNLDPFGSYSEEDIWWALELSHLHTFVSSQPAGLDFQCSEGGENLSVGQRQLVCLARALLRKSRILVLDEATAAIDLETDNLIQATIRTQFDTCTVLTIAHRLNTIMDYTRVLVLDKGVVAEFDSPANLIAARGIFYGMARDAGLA

Structure (SMILES): Cc1nc(Nc2ncc(C(=O)Nc3c(C)cccc3Cl)s2)cc(N2CCN(CCO)CC2)n1 [dasatinib, Dasatinib]
- accumulation in ABCC3 vesicles compared to control (ABCC3 (MRP3)): 1.3 fold
- unchanged drug as share of the dose recovered in feces [1]: 19%
- unchanged drug as share of the dose recovered in urine [1]: less than 1%
- clearance [2, 4]: 41.9 mL/min/kg
- clearance [2, 5]: 49.6 mL/min/kg
- Cmax [2, 4]: 3460 ng/mL
- Cmax [2, 5]: 3390 ng/mL
- Cmax [2, 6]: 48.1 ± 16.5 ng/mL
- Cmax [2, 7]: 182 ± 93.8 ng/mL
- Tmax [2, 6]: 2.19 ± 1.06 h
- Tmax [2, 7]: 0.306 ± 0.223 h
- Ka ([2]; oral 10 mg/kg, Abcc4(−/−) mice): 2.49 ± 0.92 h⁻¹
- Ka ([2]; oral 10 mg/kg, wildtype mice): 34.3 ± 6.85 h⁻¹
- Blood cell partitioning (Blood cell partitioning; Abcc4(−/−) mice): 36.1 ± 2.86%
- Blood cell partitioning (Blood cell partitioning; wildtype mice): 33.0 ± 1.04%
- intracellular accumulation on overexpression of Oct1 (mOct1): did not alter intracellular accumulation
- reduction of drug transport to the serosal side with Abcc4-deficiency (Abcc4): up to 3.9 fold
- intracellular accumulation on overexpression of Oct2 (mOct2): did not alter intracellular accumulation
- fraction unbound ([3]; Abcc4(−/−) mice): 0.0812 ± 0.00493
- fraction unbound ([3]; wildtype mice): 0.087 ± 0.0044

From publication PMC3752901 (Clinical cancer research : an official journal of the …, 2013)
